The test system of series [1] is SARS-CoV-2. Description: microbe, parasite or virus in culture. The format is cell-based. As to conditions: for HeLa-ACE2 CoV-2 Sinf Average: curve-fit effect at infinite concentration.
Series [2] relates to HeLa-ACE2 cells. The experiment in a line: Uninfected HeLa-ACE2 24 h live/dead cytotoxicity counter screen. The series is classed as cell-based, human.
The subject of series [3] is Calu-3 cells. Description: Uninfected Calu-3 48 h Cell-Titer Glo cytotoxicity counter screen. The following applies: for Calu-3 uninfected cytotoxicity Sinf Average: curve-fit effect at infinite concentration.
In series [4] the test system is SARS-CoV-2. The experiment in a line: microbe, parasite or virus in culture. The series is classed as cell-based. The following applies: for Calu-3 CoV-2 Sinf Average: curve-fit effect at infinite concentration.
Series [5] deals with Calu-3 cells. The following applies: for Calu-3 cell count Sinf Average: curve-fit effect at infinite concentration; for pEC50: read-out: Calu-3 cell count EC50 GeoMean.
In series [6] the test system is HeLa-ACE2 cells.
The conditions of series [7]: human, cited from earlier work.
The next series can be described thus: in vitro. The following applies: human, Calu-3 uninfected cytotoxicity CC50 GeoMean (µM).
Series [8] can be described thus: Uninfected HeLa-ACE2 24 h live/dead cytotoxicity counter screen. The series is classed as cell-based, human. The following applies: human, uninfected HeLa-ACE2 cells, geometric mean of replicates; read-out: HeLa-ACE2 uninfected cytotoxicity CC50 GeoMean.
Series [9] concerns Calu-3 cells. Description: cells. The following applies: Homo sapiens.
Series [10] has as its system Calu-3 cells.
The subject of series [11] is HeLa-ACE2 cells. Description: cells. The following applies: Homo sapiens, HeLa-ACE2, read-out: HeLa-ACE2 cell count EC50 GeoMean (µM), geometric mean of replicates.
A further series relates to HEK293T. As to conditions: human, 72 h.
Series [12] relates to SARS-CoV-2. The series is classed as cell-based. As to conditions: combination with remdesivir, synergy score δ.
The subject of a further series is HepG2. As to conditions: human, 72 h.
Series [13] concerns HeLa-ACE2 cells. The experiment in a line: Total cell count in the HeLa-ACE2 TOA assay. The format is cell-based. As to conditions: Homo sapiens, HeLa-ACE2, read-out: HeLa-ACE2 TOA cell count EC50 GeoMean. An excerpt:
Supplement 41467_2021_23328_MOESM3_ESM.xlsx, sheet "Table S1" | column: HeLa-ACE2 TOA cell count

Series [14] concerns SARS-CoV-2. The experiment in a line: microbe, parasite or virus in culture. The following applies: read-out: HeLa-ACE2 TOA CoV-2 EC50 GeoMean. The series is classed as cell-based.
The mark [15] stands for this setting: unrounded geometric mean, read-out: HeLa-ACE2 CoV-2 EC50 GeoMean.
[16] abbreviates: curve-fit effect at infinite concentration, average.
Where [17] appears, read: unrounded geometric mean, read-out: HeLa-ACE2 uninfected cytotoxicity CC50 GeoMean.
Where [18] appears, read: read-out: Calu-3 uninfected cytotoxicity CC50 GeoMean, unrounded geometric mean.
Setting [19] is: unrounded geometric mean, read-out: Calu-3 CoV-2 EC50 GeoMean.

pEC50: −log10 of the molar value. Like-named read-outs stand apart in the source and are kept apart here. Bounds are passed on as bounds.

Turning to Deazaneplanocin A, in the series with SARS-CoV-2 [1], the “HeLa-ACE2 CoV-2 Sinf Average” value is given as -100%. Besides, the figures for the negative logarithm of the EC50 (pEC50) with SARS-CoV-2 [1] (setting [15]), with SARS-CoV-2 [4] (setting [19]) and with Calu-3 cells [5] (unrounded geometric mean) were under 5.02, 7.25 and 6.97, respectively. In addition, in the series on HeLa-ACE2 cells [2] (setting [16]), the “HeLa-ACE2 uninfected cytotoxicity Sinf Average” value is on record as -79%. For the same compound, the values for the CC50 in the series on HeLa-ACE2 cells [2] (setting [17]) and in the series with Calu-3 cells [3] (setting [18]) were over 7950 nM and over 10300 nM, respectively. For the same compound, the “Calu-3 uninfected cytotoxicity Sinf Average” value in the series on Calu-3 cells [3] is -70%. The “Calu-3 CoV-2 Sinf Average” value in the series on SARS-CoV-2 [4] is -85%. In addition, the “Calu-3 cell count Sinf Average” value in the series on Calu-3 cells [5] stood at 62%.
Regarding Antimycin A3, the pEC50 with SARS-CoV-2 [1] (setting [15]) was under 5.02; in the series on SARS-CoV-2 [4] (setting [19]) it was 7.45; with HeLa-ACE2 cells [6] (read-out: HeLa-ACE2 cell count EC50 GeoMean, unrounded geometric mean), under 5.02; in the series with Calu-3 cells [5] (unrounded geometric mean) it was 7.20. Also, the “HeLa-ACE2 uninfected cytotoxicity Sinf Average” value in the series on HeLa-ACE2 cells [2] (setting [16]) was -100%. The 50% cytotoxic concentration (CC50) is over 39800 nM in the series on HeLa-ACE2 cells [2] (setting [17]) and over 3900 nM with Calu-3 cells [3] (setting [18]). Further, the “Calu-3 uninfected cytotoxicity Sinf Average” value with Calu-3 cells [3] is -79%. Besides, in the series on SARS-CoV-2 [4], the “Calu-3 CoV-2 Sinf Average” value was -92%. Besides, the “Calu-3 cell count Sinf Average” value with Calu-3 cells [5] turned out to be 47%.
Take Mitoguazone: the “HeLa-ACE2 CoV-2 Sinf Average” value in the series with SARS-CoV-2 [1] is reported as -100%. Besides, the pEC50 in the series on SARS-CoV-2 [1] (reconfirmed hits, read-out: HeLa-ACE2 SARS-CoV-2 EC50) is under 5.02; in the series on SARS-CoV-2 [1] (setting [15]) it was under 5.02; in the series with SARS-CoV-2 [4] (reconfirmed hits, read-out: Calu-3 SARS-CoV-2 EC50), 6.35; in the series with SARS-CoV-2 [4] (setting [19]), 6.35; in the series with Calu-3 cells [5] (unrounded geometric mean), under 5.39. In addition, the “HeLa-ACE2 uninfected cytotoxicity Sinf Average” value in the series on HeLa-ACE2 cells [2] (setting [16]) was -99%. For the same compound, the cytotoxic concentration (CC50) with HeLa-ACE2 cells [2] (reconfirmed hits, read-out: HeLa-ACE2 Uninf. cells CC50) was over 40000 nM; with HeLa-ACE2 cells [2] (setting [17]) it was over 39800 nM; in the series with Calu-3 cells [3] (read-out: Calu-3 Uninf. cells CC50, reconfirmed hits), over 30000 nM; in the series with Calu-3 cells [3] (setting [18]), over 29900 nM. In addition, in series [7] (ref [33]-[49]), the “Approx. t1/2” value is 175 h. Also, in [7] (read-out: Approx. Cmax, IV, ref [44]), the Cmax was 120 µM. For the same compound, the “Calu-3 CoV-2 Sinf Average” value with SARS-CoV-2 [4] is listed as -94%. Further, in the series with Calu-3 cells [5], the “Calu-3 cell count Sinf Average” value was found to be 71%.
Consider `CC/C(=C(/c1ccc(/C=C/C(=O)O)cc1)c1ccc2[nH]ncc2c1)c1ccc(F)cc1Cl` [ARN-810], for which the negative logarithm of the EC50 (pEC50) was under 5.02 in the series with SARS-CoV-2 [1] (Severe acute respiratory syndrome coronavirus 2, HeLa-ACE2, geometric mean of replicates, read-out: HeLa-ACE2 CoV-2 EC50 GeoMean) and 5.96 with SARS-CoV-2 [4] (Severe acute respiratory syndrome coronavirus 2, Calu-3, geometric mean of replicates, read-out: Calu-3 CoV-2 EC50 GeoMean). In “in vitro”, the cytotoxic concentration (CC50) at 48 h was over 23.8 µM. In series [8], the 50% cytotoxic concentration (CC50) at 24 h worked out at 11000 nM. The “HeLa-ACE2 uninfected cytotoxicity Sinf Average (%)” value in the series with HeLa-ACE2 cells [2] (Sinf average of the curves) is given as -99%. In addition, the Emax in the series with Calu-3 cells [9] (Calu-3, 48 h, read-out: Calu-3 cell count Sinf Average (%)) was determined as 79%; with SARS-CoV-2 [4] (Severe acute respiratory syndrome coronavirus 2, Calu-3, 48 h, Sinf average of the curves, read-out: Calu-3 CoV-2 Sinf Average (%)) it was 71%. In addition, the EC50 was over 3.06 µM with Calu-3 cells [9] (Calu-3, read-out: Calu-3 cell count EC50 GeoMean (µM), geometric mean of replicates) and over 9.59 µM in the series on HeLa-ACE2 cells [11]. Further, the “HeLa-ACE2 cell count Sinf Average (%)” value in the series on HeLa-ACE2 cells [6] (Sinf average of the curves) is listed as -100%. Besides, the “uninfected Calu-3 CC50 [μM]” value in the series with Calu-3 cells [10] is > 23.843 ×÷ 1.22 (n=3) μM. For the same compound, the “Calu-3 uninfected cytotoxicity Sinf Average (%)” value in the series with Calu-3 cells [10] (human, 48 h) is -89%.
With `Cc1cccc(/C=N/Nc2cc(N3CCOCC3)nc(OCCc3ccccn3)n2)c1` [Apilimod - control], in the series with SARS-CoV-2 [1] (Severe acute respiratory syndrome coronavirus 2, HeLa-ACE2, 24 h, curve plateau at infinite concentration, read-out: HeLa-ACE2 CoV-2 Sinf Average), the Emax came to 95%. For the same compound, the pEC50 is 7.96 in the series with SARS-CoV-2 [1] (read-out: HeLa-ACE2 CoV-2 EC50 GeoMean); 5.73 in the series on SARS-CoV-2 [4] (read-out: Calu-3 CoV-2 EC50 GeoMean); under 5.62 in the series on HeLa-ACE2 cells [13]; under 5.60 with Calu-3 cells [5]; under 5.62 in the series on SARS-CoV-2 [14]. In the series on HeLa-ACE2 cells [2] (curve plateau at infinite concentration), the “HeLa-ACE2 uninfected cytotoxicity Sinf Average” value is recorded as -100%. Also, the CC50 in the series with HeLa-ACE2 cells [2] (read-out: HeLa-ACE2 uninfected cytotoxicity CC50 GeoMean) was over 11500 nM. Also, in the series on HEK293T, the “HEK293T 72-hour cytotoxicty Sinf Average” value is listed as -79%. The “HeLa-ACE2 synergy score with remdesivi [δ]” value in the series on SARS-CoV-2 [12] was 3.568. In addition, the “HepG2 72-hour cytotoxicity Sinf Average” value in the series with HepG2 is recorded as -69%.
